Measured values reported in patent US7915012B2, “Methods for screening for inhibitors of TRPV2 activation” (Korea University Industry and Academic Collaboration …, priority 2008, dated 2011).

Key:
rTRPV2 = molecular target: T1, rTRPV2 (Rattus norvegicus, UniProt Q9WUD2, A713V/L151P/T158I); assay: Whole-cell voltage-clamp recording in TRPV2 transfected HEK293T cell line; format: cell-based
T1 construct: expressed in transfected cells; host or cells: HEK293T (ATCC CRL-11268)
T1 sequence (Q9WUD2 1-761 L151P/T158I/A713V): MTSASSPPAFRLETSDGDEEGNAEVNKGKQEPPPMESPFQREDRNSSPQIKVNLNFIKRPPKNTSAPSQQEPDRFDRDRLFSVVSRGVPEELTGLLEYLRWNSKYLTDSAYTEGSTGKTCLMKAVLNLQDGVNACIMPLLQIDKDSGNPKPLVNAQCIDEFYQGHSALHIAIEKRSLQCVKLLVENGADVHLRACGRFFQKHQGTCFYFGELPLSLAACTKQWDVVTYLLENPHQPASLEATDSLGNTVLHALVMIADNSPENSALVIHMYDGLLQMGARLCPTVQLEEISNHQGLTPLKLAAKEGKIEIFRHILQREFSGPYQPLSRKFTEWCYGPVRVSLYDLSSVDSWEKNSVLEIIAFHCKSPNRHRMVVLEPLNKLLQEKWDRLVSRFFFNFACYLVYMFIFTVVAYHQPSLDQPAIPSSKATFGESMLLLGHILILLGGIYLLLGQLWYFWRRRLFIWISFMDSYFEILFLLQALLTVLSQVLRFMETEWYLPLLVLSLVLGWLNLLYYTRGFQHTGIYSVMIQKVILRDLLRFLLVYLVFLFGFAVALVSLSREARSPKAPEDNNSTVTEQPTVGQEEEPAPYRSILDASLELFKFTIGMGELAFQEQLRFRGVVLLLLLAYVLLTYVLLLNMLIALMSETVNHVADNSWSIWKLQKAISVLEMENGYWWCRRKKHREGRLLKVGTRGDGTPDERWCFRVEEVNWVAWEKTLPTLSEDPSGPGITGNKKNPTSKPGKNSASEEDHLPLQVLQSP
Description: HEK293T cell line (ATCC CRL-1 1268) was transiently transfected with plasmid DNA containing polynucleotide encoding […] (SEQ. ID. NO: 1), rTRPV2 (SEQ. ID. NO: 2), mTRPV3 (SEQ. ID. NO: 3), rTRPV4 (SEQ. ID. NO: 4), mTRPM8 (SEQ. ID. NO: 5) or mTRPA1 (SEQ. ID. NO: 6).
Particularly, the HEK293T cell line was transiently transfected with individual TRP channel plasmid (pcDNA3.1 containing polynucleotide encoding rTRPV1, rTRPV2, mTRPV3, rTRPV4, mTRPM8 or mTRPA1), and 600 ng/well of pCDNA3 (Invitrogen Corp., USA; containing green fluorescent protein (GFP) cDNA) using Fugene6 (Roche Diagnostics, USA) according to manufacturer's instruction. The transformed cells were cultured in DMEM/F12 containing 10% FBS and 1% penicillin/streptomycin in a CO2 incubator for 24 hours. The cells were replated onto poly-L-lysine-coated glass coverslips, followed by further culture for 10-24 hours.
The TRPV2 transfected cell line prepared in Example 1 was treated with 100 μM probenecid (Sigma-Aldrich, USA) and 300 μM 2-APB (2-aminoethoxydiphenyl borate; Cayman Chemical, USA), respectively. Stock solutions were made using water, DMSO or ethanol, and were diluted with test solutions before use.
Whole-cell voltage-clamp recording, one of the patch-clamp techniques, was performed with the transfected cell line of Example <1-1> according to the method of Bandel M, et al. (Neuron 41:849-857, 2004).
Particularly, the extracellular solution (140 mM NaCl, 5 mM KCl, 2 mM CaCl2, 1 mM MgCl2, 10 mM HEPES; titrated to pH 7.4 with NaOH) and the pipette solution (140 mM CsCl, 5 mM EGTA, 10 mM HEPES, 2.0 mM MgATP, 0.2 mM NaGTP; titrated to pH 7.2 with CsOH) were used. The potential was held at −60 mV for 250 ms, voltage-ramp pulsed from −80 mV to +80 mV for […] and returned to −60 mV for 250 ms, which was repeated without intersweep. This experiment was repeated 5 times.
The TRPV2 transfected cell line prepared by the method of Example 1 was treated with 100 μM probenecid, 100 μM probenecid+20 μM ruthenium red (Sigma-Aldrich, USA) and 300 μM 2-APB, respectively. […]

trigeminal neurons [1] = assay: Calcium imaging of cultured trigeminal neurons; format: cell-based, ICR mice
Description: Trigeminal ganglia were dissected out of decapitated adult ICR mice in cold PBS and treated with 1.5 mg/ml of collagenase/dispase (Roche Diagnostics, USA) at 37° for 45 min, and then treated with 0.25% trypsin (Invitrogen, USA) for 15 min. The trigeminal neurons prepared thereby were then plated onto poly-L-lysinecoated coverslips in DMEM/F12 containing 10% FBS, 1% penicillin/streptomycin and 5 ng/ml of 2.5S NGF (Invitrogen, USA), followed by culture in a CO2 incubator for 48-72 hours.
Calcium imaging was performed with a confocal microscope (LSM5 Pascal, Carl Zeiss, Germany), and time-lapse images (excitation 488 nm/emission 514 nm) were collected every 3 seconds using Carl Zeiss ratio tool software (Carl Zeiss, Germany).
The trigeminal neurons prepared by the same manner as described in Example 2 were delayed-treated with 100 μM probenecid or 4 kinds of TRP activators: TRPM8 activator menthol 400 μM, TRPA1 activator cinnamaldehyde (MP Biomedicals, USA) 300 μM, TRPV1 activator capsaicin (Sigma-Aldrich, USA) 2 μM and TRPV1-3 activator 2-APB 300 μM.
The trigeminal neurons prepared by the same manner as described in Example 2 were treated with 300 μM 2-APB+100 μM probenecid, 300 μM 2-APB+2 μM capsaicin, 300 μM 2-APB+300 μM cinnamaldehyde+2 μM capsaicin, 300 μM 2-APB +2 μM capsaicin +100 μM probenecid, 300 μM 2-APB +400 μM menthol and 300 μM 2-APB, respectively.

trigeminal neurons [2] = assay: Whole-cell voltage-clamp recording in trigeminal neurons; format: cell-based, ICR mice; settings: 20 μM ruthenium red + 100 μM probenecid

NCCOB(c1ccccc1)c1ccccc1 [2-APB, 2-aminoethoxydiphenyl borate]
whole cell current (TRPV2 activation) (rTRPV2; 300 μM 2-APB): equal response | neurons sensitive to 2-APB, share of the total neurons (trigeminal neurons [1]; 300 μM 2-APB): 46.8% | neurons with probenecid-induced calcium influx that responded to 2-APB (trigeminal neurons [1]; 300 μM 2-APB, 100 μM probenecid): 59 out of 60

COc1cc(CNC(=O)CCCC/C=C/C(C)C)ccc1O [capsaicin]
share of probenecid-sensitive neurons that responded to capsaicin (trigeminal neurons [1]; 2 μM capsaicin, 100 μM probenecid): 7.7% | share of the 2-APB-sensitive group that responded to capsaicin (trigeminal neurons [1]; 2 μM capsaicin, 300 μM 2-APB): 40.2%

N.N.N.N.N.N.N.N.N.N.N.N.N.N.[Cl-].[Cl-].[Cl-].[Cl-].[Cl-].[Cl-].[O-2].[O-2].[Ru+3].[Ru+3].[Ru+4] [ruthenium red]
inhibition of probenecid induced current response (rTRPV2; 20 μM ruthenium red + 100 μM probenecid): inhibited | inhibition of probenecid induced currents in trigeminal neurons (trigeminal neurons [2]): inhibited
